Format in all cases: in vivo, Lewis rats
One assay deals with retina. Kind of assay: Intravitreous aldosterone injection in rat eyes: retinal morphology and thickness. As to the method:
All experiments were performed in accordance with the European Communities Council Directive 86/609/EEC and approved by local ethical committees. Adult female Lewis rats (8-12 weeks old, Janvier, Le Genest-Saint-Isle, France) were used for preparation of RMG primary cultures, for retinal organotypic cultures and for in vivo experiments. Rats were sacrificed by carbon dioxide inhalation.
(§1) Anesthesia of rats was induced by intramuscular injection of ketamine (100 mg/kg, Virbac, Carros, France) and chlorpromazine (0.65 mg/kg, LARGACTIL®, Sanofi Aventis, Livron sur Drome, France). Intravitreous injections were performed using microfine (300 μl) syringes with 30 G needles under topical anesthesia (tetracaine 1%, Aldrich, Lyon, France). Rat eyes were injected with 5 μl aldosterone diluted in 0.9% saline to obtain a concentration of 200 nM for injection, corresponding to a final concentration of 20 nM in the vitreous. Control rat eyes were injected with 5 μl saline. Twenty-four hrs after injection, rats were sacrificed. Eyes were then removed for retinal flat mounting, immunohistochemistry and morphological analysis respectively.
Enucleated eyes were fixed in 2.5% glutaraldehyde in cacodylate buffer (0.1 M, pH 7.4). After 30 min, eyes were dissected at the level of the limbus and lens removed. The posterior part was fixed for a further 5 hrs, dehydrated in a graded alcohol series (50%, 70%, 95% and 100%) and embedded in epoxy resin. Semi-thin sections (1 J.Im) were cut using an ultramicrotome (Reichert Ultracut E, Leica, Wetzlar, Germany), and stained with toluidine blue. The morphology was examined under a light microscope (DMRB, Leica). Retinal thickness was measured manually every 100 μm from the peripheral to the posterior pole. For analysis, the retina was divided into 3 zones: periphery, middle and posterior pole. In each zone, 3-4 individual measurements were performed in each section. Two to 6 sections were analyzed per rat (3 rats with aldosterone intravitreous injection and 3 with sham injection)

Another assay relates to GFAP. Kind of assay: GFAP immunostaining of retinas from aldosterone-injected eyes (glial activation). Particulars: intravitreous injection, vs sham-injected retinas. As to the method: as §1
Eyes were fixed for 15 min in 4% paraformaldehyde (PFA, LADD, Inland Europe, Conflans-sur-Lanterne, France). After washing, retinas were isolated, cut by 4 orthogonal incisions and post-fixed with acetone 100% at −20° C. for 15 min. They were then rehydrated with phosphate-buffered saline (PBS) containing 1% Triton X-I00, and incubated with a polyclonal rabbit antibody against AQP4 (1:100) or a polyclonal rabbit antibody against glial fibrillary acidic protein (GF AP, 1:100, Dako, Trappes, France) at room temperature under stirring overnight. […]

The subject of a further assay is ENaC-α. Kind of assay: ENaC-α immunolocalization in retina of aldosterone-injected eyes. Particulars: aldosterone-injected vs saline-injected eyes. As to the method:
as §1
Eyes were snap frozen in Tissue-Tek OCT-compound (Bayer Diagnostics, Puteaux, France). Ten μm cryostat sections of rat eyes were fixed in 4% PFA for 15 min and permeabilized with 0.1% Triton X-I00 for 30 min. Unspecific binding sites were blocked with 5% normal goat serum for 1 hr. The sections were then incubated with primary antibodies for 1 hr at room temperature, washed in PBS, and further incubated with secondary antibodies for 1 hr. […] Images were taken using a fluorescence microscope (Olympus BX51, Rungis, France) equipped with a CCD camera (Olympus DP70). […]

The subject of the next assay is AQP4. As to the kind of experiment: AQP4 immunofluorescence and flat-mount confocal imaging in retina of aldosterone-injected eyes. Particulars: aldosterone-injected vs sham-injected eyes. As to the method:
as §1
Eyes were fixed for 15 min in 4% paraformaldehyde (PFA, LADD, Inland Europe, Conflans-sur-Lanterne, France). After washing, retinas were isolated, cut by 4 orthogonal incisions and post-fixed with acetone 100% at −20° C. for 15 min. […]
Eyes were snap frozen in Tissue-Tek OCT-compound (Bayer Diagnostics, Puteaux, France). […] Images were taken using a fluorescence microscope (Olympus BX51, Rungis, France) equipped with a CCD camera (Olympus DP70). […]

Setting [1] is: single intravitreous injection, 20 nM, 24 hrs later.

“Also recorded” adds a separate entry of the source.

Regarding `C[C@]12CCC(=O)C=C1CC[C@@H]1[C@@H]2[C@@H](O)C[C@]2(C=O)[C@@H](C(=O)CO)CC[C@@H]12` [aldosterone], in the assay on retina (intravitreous injection, 20 nM final in the vitreous, 24 hrs), the “retinal swelling (increase compared to sham-injected eyes)” value stood at 24%. Further, in the assay on retina (setting [1]), the “Retinal thickness compared to sham-injected eyes” value is “significantly increased” and the “retinal morphological changes on semi-thin sections” value was “fluid accumulation in the entire retina”. The “glial (RMG) activation, GFAP distribution” value in the assay on GFAP is given as “enhances glial activation; also recorded: strong activation of RMG”. In the assay on ENaC-α, the “ENaC-α expression intensity and number of expressing cells in retina” value was “increased in the INL”. Also, the “AQP4 localization / pattern of expression in retina” value in the assay with AQP4 is given as “additional localization; also recorded: extends all along RMG prolongations up to the OLM in their apical microvilli; also recorded: perivascular AQP4 fluorescence is more intense; also recorded: additional mislocalization”.

Values taken from US9610294B2, “Methods and compositions for the treatment of fluid accumulation in and/or under the retina” (UNIVERSITE PARIS DESCARTES, priority 2010, dated 2017).
